In publication PMC5100899 (Journal of medicinal chemistry, 2016):
In brackets after ≈: the same amount, converted by molar mass. Where two headings read alike, the source gives them in different places.

Assays:
HepG2 = HepG2 growth inhibition; assay type: cell-based; details: Homo sapiens, HepG2, read-out: human cells, GI50 HepG2
CRL-8155 = CRL-8155 growth inhibition; assay type: cell-based; details: Homo sapiens, CRL8155, read-out: human cells, GI50 CRL-8155
Src = Src (Homo sapiens, UniProt P12931); assay: Src tyrosine kinase inhibition; assay type: biochemical
Chain of Src (P12931 whole entry, species assumed): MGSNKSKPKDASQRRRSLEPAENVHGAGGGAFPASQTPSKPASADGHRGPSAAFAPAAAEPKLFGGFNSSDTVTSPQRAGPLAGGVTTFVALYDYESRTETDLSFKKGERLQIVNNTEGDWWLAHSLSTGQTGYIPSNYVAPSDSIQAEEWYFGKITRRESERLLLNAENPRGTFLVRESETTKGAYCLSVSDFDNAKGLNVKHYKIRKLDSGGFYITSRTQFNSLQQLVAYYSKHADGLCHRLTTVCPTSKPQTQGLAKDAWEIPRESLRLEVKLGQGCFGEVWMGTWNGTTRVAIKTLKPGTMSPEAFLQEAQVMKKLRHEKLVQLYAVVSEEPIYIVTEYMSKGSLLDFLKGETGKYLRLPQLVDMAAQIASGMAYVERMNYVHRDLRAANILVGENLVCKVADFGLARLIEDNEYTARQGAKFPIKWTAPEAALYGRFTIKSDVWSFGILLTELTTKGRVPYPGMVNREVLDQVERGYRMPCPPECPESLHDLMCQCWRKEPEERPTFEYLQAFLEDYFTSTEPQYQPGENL

hERG = hERG (Homo sapiens, UniProt Q12809)
Chain of hERG (Q12809 whole entry): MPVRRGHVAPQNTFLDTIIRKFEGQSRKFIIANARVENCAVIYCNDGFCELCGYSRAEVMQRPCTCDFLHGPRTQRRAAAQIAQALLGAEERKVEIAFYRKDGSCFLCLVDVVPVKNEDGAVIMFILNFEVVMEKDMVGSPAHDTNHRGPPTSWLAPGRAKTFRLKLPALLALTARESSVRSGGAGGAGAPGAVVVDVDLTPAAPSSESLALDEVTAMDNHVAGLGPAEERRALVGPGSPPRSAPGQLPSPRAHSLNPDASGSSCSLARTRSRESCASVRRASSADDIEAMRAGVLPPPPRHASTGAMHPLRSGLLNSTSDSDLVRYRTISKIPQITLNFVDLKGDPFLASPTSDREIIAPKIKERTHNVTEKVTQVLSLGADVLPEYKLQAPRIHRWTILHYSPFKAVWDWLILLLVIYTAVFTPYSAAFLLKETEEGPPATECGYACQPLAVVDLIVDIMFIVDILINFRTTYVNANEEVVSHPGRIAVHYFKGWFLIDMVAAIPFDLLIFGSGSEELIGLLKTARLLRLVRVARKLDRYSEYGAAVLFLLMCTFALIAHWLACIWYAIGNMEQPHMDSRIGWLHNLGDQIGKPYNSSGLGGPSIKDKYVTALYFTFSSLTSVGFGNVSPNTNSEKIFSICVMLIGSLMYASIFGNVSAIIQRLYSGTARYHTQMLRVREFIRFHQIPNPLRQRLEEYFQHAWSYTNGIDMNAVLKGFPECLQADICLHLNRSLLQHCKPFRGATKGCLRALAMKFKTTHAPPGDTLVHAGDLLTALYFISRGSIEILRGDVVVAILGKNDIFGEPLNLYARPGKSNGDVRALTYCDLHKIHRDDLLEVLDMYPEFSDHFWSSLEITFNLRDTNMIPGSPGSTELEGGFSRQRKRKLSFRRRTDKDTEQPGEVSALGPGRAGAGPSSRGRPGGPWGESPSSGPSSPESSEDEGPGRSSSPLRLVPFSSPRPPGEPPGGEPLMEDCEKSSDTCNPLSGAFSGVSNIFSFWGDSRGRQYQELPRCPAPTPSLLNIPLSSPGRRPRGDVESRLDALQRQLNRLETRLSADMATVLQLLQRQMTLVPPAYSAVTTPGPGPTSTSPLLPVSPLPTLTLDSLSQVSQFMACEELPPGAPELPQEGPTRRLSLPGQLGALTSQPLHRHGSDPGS

physchem = details: phosphate-buffered saline, pH 6.5, Solubility
[1] = phosphate-buffered saline, pH 6.5
in vitro = details: mouse

SMILES | GI50 (HepG2) | GI50 (CRL-8155) | IC50 (Src) | lower activity against hERG than 1 (hERG) | solubility (physchem) | solubility [1] | EC50 (in vitro)
CCOc1ccc2cc(-c3nn(CC4CNC4)c4ncnc(N)c34)ccc2c1 [Compound 5] | > 10 µM | > 10 µM | > 10 µM |  |  |  | 
CCOc1ccc2cc(-c3nn(CC4CN(C)C4)c4ncnc(N)c34)ccc2c1 [Compound 6] | > 10 µM | > 10 µM | > 10 µM |  |  |  | 
CCOc1ccc2cc(-c3nn(CC4CCN(C(C)C)CC4)c4ncnc(N)c34)ccc2c1 [Compound 7] | > 10 µM | > 10 µM | > 10 µM |  |  |  | 
CCOc1ccc2cc(-c3nn(CC4CCN(C(C)=O)CC4)c4ncnc(N)c34)ccc2c1 [Compound 8] | > 10 µM | > 10 µM |  |  |  |  | 
CCOc1ccc2cc(-c3nn(CC4CN(C(C)=O)C4)c4ncnc(N)c34)ccc2c1 [Compound 9] | > 10 µM | > 10 µM |  |  |  |  | 
CN1CCC(Cn2nc(-c3ccc4cc(OCC5CC5)ccc4c3)c3c(N)ncnc32)CC1 [Compound 10, 3-(6-(Cyclopropylmethoxy)naphthalen-2-yl)-1-((1-methylpiperidin-4-yl)methyl)-1H-pyrazolo[3,4-d]pyrimidin-4-amine] | > 10 µM | > 10 µM | > 10 µM |  |  |  | 
CN1CCC(Cn2nc(-c3ccc4cc(OC5CCC5)ccc4c3)c3c(N)ncnc32)CC1 [Compound 11, 3-(6-Cyclobutoxynaphthalen-2-yl)-1-((1-methylpiperidin-4-yl)methyl)-1H-pyrazolo[3,4-d]pyrimidin-4-amine] | > 10 µM | > 10 µM | > 10 µM |  |  |  | 
CN1CCC(Cn2nc(-c3ccc4cc(OC5CC5)ccc4c3)c3c(N)ncnc32)CC1 [Compound 12, 3-(6-Cyclopropoxynaphthalen-2-yl)-1-((1-methylpiperidin-4-yl)methyl)-1H-pyrazolo[3,4-d]pyrimidin-4-amine] |  | > 10 µM | > 10 µM |  |  |  | 
COCCOc1ccc2cc(-c3nn(CC4CCN(C)CC4)c4ncnc(N)c34)ccc2c1 [Compound 13, 3-(6-(2-Methoxyethoxy)naphthalen-2-yl)-1-((1-methylpiperidin-4-yl)methyl)-1H-pyrazolo[3,4-d]pyrimidin-4-amine] | > 10 µM | > 10 µM | > 10 µM |  |  |  | 
CN1CCC(Cn2nc(-c3ccc4cc(OC5COC5)ccc4c3)c3c(N)ncnc32)CC1 [Compound 14, 1-((1-Methylpiperidin-4-yl)methyl)-3-(6-(oxetan-3-yloxy)naphthalen-2-yl)-1H-pyrazolo[3,4-d]pyrimidin-4-amine] | > 10 µM | > 10 µM | > 10 µM |  |  |  | 
CN1CCC(Cn2nc(-c3ccc4cc(OCC(C)(C)O)ccc4c3)c3c(N)ncnc32)CC1 [Compound 16, 1-(6-(4-Amino-1-((1-methylpiperidin-4-yl)methyl)-1H-pyrazolo[3,4-d]pyrimidin-3-yl)naphthalen-2-yloxy)-2-methylpropan-2-ol] | > 10 µM | > 10 µM | > 10 µM |  |  |  | 
CCOc1ccc2cc(-c3nn(CC4CCN(C)CC4)c4ncnc(N)c34)ccc2n1 [Compound 17, 3-(2-Ethoxyquinolin-6-yl)-1-((1-methylpiperidin-4-yl)methyl)-1H-pyrazolo[3,4-d]pyrimidin-4-amine] |  |  | > 10 µM | 25 fold |  |  | 
CN1CCC(Cn2nc(-c3ccc4nc(OC5CC5)ccc4c3)c3c(N)ncnc32)CC1 [Compound 19, 3-(2-Cyclopropoxyquinolin-6-yl)-1-((1-methylpiperidin-4-yl)methyl)-1H-pyrazolo[3,4-d]pyrimidin-4-amine] | > 10 µM |  | > 10 µM |  |  |  | 
CN(C)CC(C)(C)Cn1nc(-c2ccc3nc(OC4CC4)ccc3c2)c2c(N)ncnc21 [Compound 20, 3-(2-Cyclopropoxyquinolin-6-yl)-1-(3-(dimethylamino)-2,2-dimethylpropyl)-1H-pyrazolo[3,4-d]pyrimidin-4-amine] | > 10 µM | > 10 µM | > 10 µM |  |  |  | 
CCOc1ccc2cc(-c3nn(CC(C)C)c4ncnc(N)c34)ccc2c1 [Compound 21, 3-(6-Ethoxynaphthalen-2-yl)-1-isobutyl-1H-pyrazolo[3,4-d]pyrimidin-4-amine] | > 10 µM | > 10 µM | > 10 µM |  |  |  | 
CC(C)Cn1nc(-c2ccc3cc(OC4CC4)ccc3c2)c2c(N)ncnc21 [Compound 22, 3-(6-Cyclopropoxynaphthalen-2-yl)-1-isobutyl-1H-pyrazolo[3,4-d]pyrimidin-4-amine] |  | > 10 µM |  |  |  |  | 
CC(C)Cn1nc(-c2ccc3nc(OC4CC4)ccc3c2)c2c(N)ncnc21 [Compound 23, 3-(2-Cyclopropoxyquinolin-6-yl)-1-isobutyl-1H-pyrazolo[3,4-d]pyrimidin-4-amine] | > 10 µM | > 10 µM | > 10 µM |  |  |  | 
CC1(Cn2nc(-c3ccc4cc(OC5CC5)ccc4c3)c3c(N)ncnc32)COC1 [Compound 24, 3-(6-Cyclopropoxynaphthalen-2-yl)-1-((3-methyloxetan-3-yl)methyl)-1H-pyrazolo[3,4-d]pyrimidin-4-amine] | > 10 µM | > 10 µM | > 10 µM |  |  |  | 
CC1(Cn2nc(-c3ccc4nc(OC5CC5)ccc4c3)c3c(N)ncnc32)COC1 [Compound 25, 3-(2-Cyclopropoxyquinolin-6-yl)-1-((3-methyloxetan-3-yl)methyl)-1H-pyrazolo[3,4-d]pyrimidin-4-amine] | > 10 µM | > 10 µM | > 10 µM |  |  |  | 
CCOc1ccc2cc(-c3nn(CC4CCOCC4)c4ncnc(N)c34)ccc2c1 [Compound 26] | > 10 µM | > 10 µM | > 10 µM |  |  |  | 
CCOc1ccc2cc(-c3nn(CC4CCOCC4)c4ncnc(N)c34)ccc2n1 [Compound 27] | > 10 µM | > 10 µM | > 10 µM |  |  |  | 
Nc1ncnc2c1c(-c1ccc3cc(OC4CC4)ccc3c1)nn2CC1CCOCC1 [Compound 28, 3-(6-Cyclopropoxynaphthalen-2-yl)-1-((tetrahydro-2H-pyran-4-yl)methyl)-1H-pyrazolo[3,4-d]pyrimidin-4-amine] | > 10 µM | > 10 µM |  |  |  |  | 
Nc1ncnc2c1c(-c1ccc3nc(OC4CC4)ccc3c1)nn2CC1CCOCC1 [Compound 29, 3-(2-Cyclopropoxyquinolin-6-yl)-1-((tetrahydro-2H-pyran-4-yl)methyl)-1H-pyrazolo[3,4-d]pyrimidin-4-amine] | > 10 µM | > 10 µM | > 10 µM |  | < 20 µM | 17 µM (≈ 7.08 µg/mL) | 
CCOc1ccc2cc(-c3nn(CC(C)(C)O)c4ncnc(N)c34)ccc2c1 [Compound 30, 1-(4-Amino-3-(6-ethoxynaphthalen-2-yl)-1H-pyrazolo[3,4-d]pyrimidin-1-yl)-2-methylpropan-2-ol] | > 10 µM | > 10 µM | > 10 µM |  |  |  | 
CCOc1ccc2cc(-c3nn(CC(C)(C)O)c4ncnc(N)c34)ccc2n1 [Compound 31, 1-(4-Amino-3-(2-ethoxyquinolin-6-yl)-1H-pyrazolo[3,4-d]pyrimidin-1-yl)-2-methylpropan-2-ol] | > 10 µM | > 10 µM | > 10 µM |  |  |  | 
CC(C)(O)Cn1nc(-c2ccc3nc(OC4CC4)ccc3c2)c2c(N)ncnc21 [Compound 33, 1-(4-Amino-3-(2-cyclopropoxyquinolin-6-yl)-1H-pyrazolo[3,4-d]pyrimidin-1-yl)-2-methylpropan-2-ol] | > 10 µM | > 10 µM |  |  |  |  | 1.33 µM
CC(C)(CO)Cn1nc(-c2ccc3nc(OCC(F)(F)F)ccc3c2)c2c(N)ncnc21 [Compound 36, 3-(4-Amino-3-(2-(2,2,2-trifluoroethoxy)quinolin-6-yl)-1H-pyrazolo[3,4-d]pyrimidin-1-yl)-2,2-dimethylpropan-1-ol] |  |  | > 10 µM |  |  |  | 
Nc1ncnc2c1c(-c1ccc3cc(OC4CC4)ccc3c1)nn2CC(O)(C(F)(F)F)C(F)(F)F [Compound 37, 2-((4-Amino-3-(6-cyclopropoxynaphthalen-2-yl)-1H-pyrazolo[3,4-d]pyrimidin-1-yl)methyl)-1,1,1,3,3,3-hexafluoropropan-2-ol] | > 10 µM | > 10 µM | > 10 µM |  |  |  | 
